# Source: US20230263822A1, “MODULATION OF FACTOR 11 EXPRESSION” (Ionis Pharmaceuticals, Inc., priority 2008, published 2023)
# Strand notation (5' to 3'): a small letter for the sugar, then the base; units joined by * are phosphorothioate-linked, units joined directly phosphodiester-linked; [ ] holds rarer units or linkages, { } end groups; capitals alone tell only the bases. e = 2'-O-(2-methoxyethyl) (MOE); [5mC] = 5-methylcytosine; d = 2'-deoxy (DNA)
# Columns and labels:
# human Factor 11 mRNA = test: Dose-dependent antisense inhibition of human Factor 11 in HepG2 cells, lipofectin 9.375-150 nM (Example 2); format: cell-based; settings: ~16 h
# blood coagulation = test: PT and aPTT assay in cynomolgus monkeys (Example 45); format: in vivo; settings: escalating dose regimen, platelet poor plasma
# Protocol: (§1) Groups, each consisting of two male and three female monkeys, were injected subcutaneously with ISIS 416838, ISIS 416850, ISIS 416858, ISIS 416864, or ISIS 417002 in escalating doses. Antisense oligonucleotide was administered to the monkeys at 5 mg/kg three times per a week for week 1; 5 mg/kg twice per week for weeks 2 and 3; 10 mg/kg three times per week for week 4; 10 mg/kg twice per week for weeks 5 and 6; 25 mg/kg three times per week for week 7; and 25 mg/kg twice per week for weeks 8, 9, 10, 11, and 12. One control group, consisting of two male and three female monkeys, was injected subcutaneously with PBS according to the same dosing regimen. An additional experimental group, consisting of two male and three female monkeys, was injected subcutaneously with ISIS 416850 in a chronic, lower dose regimen. Antisense oligonucleotide was administered to the monkeys at 5 mg/kg three times per week for week 1; 5 mg/kg twice per week for week 2 and 3; 10 mg/kg three times per week for week 4; and 10 mg/kg twice per week for weeks 5 to 12. Body weights were measured weekly. Blood samples were collected 14 days and 5 days before the start of treatment and subsequently once per week for Factor 11 protein activity analysis in plasma, fibrinogen measurement, PT and aPTT measurements, bleeding times, and measurement of various hematologic factors. On day 85, the monkeys were euthanized by exsanguination while under deep anesthesia, and organs harvested for further analysis.
# Blood samples were collected in tubes containing sodium citrate. PT and aPTT were determined in duplicate with an ACL 9000 coagulation instrument (Instrumentation Laboratory, Italy). The results were interpolated on a standard curve of serial dilutions citrated control monkey plasma tested to give a reported result in percent normal.
# Prothrombin Time (PT) and Activated Partial Thromboplastin Time (aPTT) were measured using platelet poor plasma (PPP) from monkeys treated with ISIS oligonucleotides. PT and aPTT values are provided in Tables 116 and 117 and are reported as International Normalized Ratio (INR) values. INR values for PT and aPTT were determined by dividing the PT or aPTT value for each experimental group by the PT or aPTT for the PBS treated group. This ratio was then raised to the power of the International Sensitivity Index (ISI) of the tissue factor used. The ISIS oligonucleotide, ISIS 416850, given with the chronic dose regimen is distinguished from the other oligonucleotides with an asterisk (*).
# [1] = Kidney function, urine protein to creatinine ratio in cynomolgus monkeys (Example 45); format: in vivo
# Protocol: as §1
# To evaluate the impact of ISIS oligonucleotides on kidney function, urine samples were collected.
# [2] = mouse, in vivo
# Protocol: A control group of five mice was injected subcutaneously with PBS for 2 weeks. All experimental groups (i.e. ASO treated mice at 2, 4, 6 weeks) were compared to the control group (i.e. PBS, 2 weeks).
# Blood obtained from all mice groups were sent to Antech Diagnostics for hematocrit (HCT), mean corpuscular volume (MCV), mean corpuscular hemoglobin (MCH), and mean corpuscular hemoglobin concentration (MCHC) measurements and analyses, as well as measurements of the various blood cells, such as WBC (neutrophils, lymphocytes, and monocytes), RBC, and platelets, and total hemoglobin content.
# [3] = Tolerability in Sprague-Dawley rats: hematology assays (Example 35); settings: 50 mg/kg s.c. twice per week for 6 weeks; for HCT / MCH / MCHC / MCV: title says % control
# Protocol: A control group of four Sprague Dawley rats was injected subcutaneously with PBS twice per week for 6 weeks. Body weight measurements were taken before and throughout the treatment period. Urine samples were taken before the start of treatment. Three days after the last dose, urine samples were taken and the rats were sacrificed. Organ weights were measured and blood was collected for further analysis.
# Blood obtained from all rat groups were sent to Antech Diagnostics for hematocrit (HCT), mean corpuscular volume (MCV), mean corpuscular hemoglobin (MCV), and mean corpuscular hemoglobin concentration (MCHC) measurements and analyses, as well as measurements of various blood cells, such as WBC (neutrophils, lymphocytes and monocytes), RBC, and platelets as well as hemoglobin content.
# [4] = Tolerability in Sprague-Dawley rats: hematology assays (Example 44); format: in vivo; settings: 50 mg/kg s.c. twice per week for 6 weeks, blood
substance,measurement,setting,value
412206 (antisense e[5mC]*e[5mC]*eG*eT*eG*d[5mC]*dA*dT*d[5mC]*dT*dT*dT*d[5mC]*dT*dT*eG*eG*e[5mC]*eA*eT) [compound 412206],percent inhibition of Factor 11 at 9.375 nM,human Factor 11 mRNA,28%
same,percent inhibition of Factor 11 at 18.75 nM,human Factor 11 mRNA,44%
same,percent inhibition of Factor 11 at 37.5 nM,human Factor 11 mRNA,68%
same,percent inhibition of Factor 11 at 75 nM,human Factor 11 mRNA,80%
same,percent inhibition of Factor 11 at 150 nM,human Factor 11 mRNA,89%
same,IC50,human Factor 11 mRNA,22 nM
"412223 (antisense ACAGTTTCTGGCAGGCCTCG; 5-10-5 MOE gapmer, further chemistry not given here) [compound 412223]",percent inhibition of Factor 11 at 9.375 nM,human Factor 11 mRNA,33%
same,percent inhibition of Factor 11 at 18.75 nM,human Factor 11 mRNA,48%
same,percent inhibition of Factor 11 at 37.5 nM,human Factor 11 mRNA,62%
same,percent inhibition of Factor 11 at 75 nM,human Factor 11 mRNA,76%
same,percent inhibition of Factor 11 at 150 nM,human Factor 11 mRNA,81%
same,IC50,human Factor 11 mRNA,21 nM
"412224 (antisense GCATTGGTGCACAGTTTCTG; 5-10-5 MOE gapmer, further chemistry not given here) [compound 412224]",percent inhibition of Factor 11 at 9.375 nM,human Factor 11 mRNA,24%
same,percent inhibition of Factor 11 at 18.75 nM,human Factor 11 mRNA,45%
same,percent inhibition of Factor 11 at 37.5 nM,human Factor 11 mRNA,57%
same,percent inhibition of Factor 11 at 75 nM,human Factor 11 mRNA,70%
same,percent inhibition of Factor 11 at 150 nM,human Factor 11 mRNA,81%
same,IC50,human Factor 11 mRNA,28 nM
"412225 (antisense GCAGCGGACGGCATTGGTGC; 5-10-5 MOE gapmer, further chemistry not given here) [compound 412225]",percent inhibition of Factor 11 at 9.375 nM,human Factor 11 mRNA,32%
same,percent inhibition of Factor 11 at 18.75 nM,human Factor 11 mRNA,42%
same,percent inhibition of Factor 11 at 37.5 nM,human Factor 11 mRNA,65%
same,percent inhibition of Factor 11 at 75 nM,human Factor 11 mRNA,78%
same,percent inhibition of Factor 11 at 150 nM,human Factor 11 mRNA,73%
same,IC50,human Factor 11 mRNA,23 nM
"413482 (antisense GGACGGCATTGGTGCACAGT; 5-10-5 MOE gapmer, further chemistry not given here) [compound 413482]",percent inhibition of Factor 11 at 9.375 nM,human Factor 11 mRNA,26%
same,percent inhibition of Factor 11 at 18.75 nM,human Factor 11 mRNA,39%
same,percent inhibition of Factor 11 at 37.5 nM,human Factor 11 mRNA,59%
same,percent inhibition of Factor 11 at 75 nM,human Factor 11 mRNA,74%
same,percent inhibition of Factor 11 at 150 nM,human Factor 11 mRNA,82%
same,IC50,human Factor 11 mRNA,28 nM
"ISIS 416838: MOE gapmer, nucleobases 1018 to 1042 of SEQ ID NO: 1 (Table 6) (antisense GCAACCGGGATGATGAGTGC; MOE gapmer, wing and gap sizes not given here)",PT ratio (INR),blood coagulation; day 8,1.03
same,aPTT ratio (INR),blood coagulation; day 8,1.07
same,PT ratio (INR),blood coagulation; day 15,1.03
same,aPTT ratio (INR),blood coagulation; day 15,1.05
same,PT ratio (INR),blood coagulation; day 22,1.07
same,aPTT ratio (INR),blood coagulation; day 22,1.20
same,PT ratio (INR),blood coagulation; day 29,1.03
same,aPTT ratio (INR),blood coagulation; day 29,1.19
same,PT ratio (INR),blood coagulation; day 36,1.05
same,aPTT ratio (INR),blood coagulation; day 36,1.20
same,PT ratio (INR),blood coagulation; day 43,1.03
same,aPTT ratio (INR),blood coagulation; day 43,1.18
same,PT ratio (INR),blood coagulation; day 50,1.02
same,aPTT ratio (INR),blood coagulation; day 50,1.25
same,PT ratio (INR),blood coagulation; day 57,1.04
same,aPTT ratio (INR),blood coagulation; day 57,1.21
same,PT ratio (INR),blood coagulation; day 64,1.04
same,aPTT ratio (INR),blood coagulation; day 64,1.18
same,PT ratio (INR),blood coagulation; day 71,1.02
same,aPTT ratio (INR),blood coagulation; day 71,1.15
same,PT ratio (INR),blood coagulation; day 78,1.04
same,aPTT ratio (INR),blood coagulation; day 78,1.19
same,PT ratio (INR),blood coagulation; day 85,1.05
same,aPTT ratio (INR),blood coagulation; day 85,1.22
same,PT ratio (INR),blood coagulation; day −5,1.00
same,aPTT ratio (INR),blood coagulation; day −5,1.00
same,PT ratio (INR),blood coagulation; day −14,1.00
same,aPTT ratio (INR),blood coagulation; day −14,1.00
same,urine protein to creatinine ratio,[1]; Day 80,0.13
same,urine protein to creatinine ratio,[1]; Day 84,0.13
same,RBC count,[2],8 cells/pL
same,Platelets,[3],27 10^3/μL
same,RBC,[3],4
same,WBC,[3],13 nL⁻¹
same,lymphocytes,[3],3%
same,monocytes,[3],6%
same,neutrophils,[3],17%
same,HCT,[3],5%
same,MCH,[3],2
same,MCHC,[3],5%
same,MCV,[3],4
"ISIS 417002: MOE gapmer, nucleobases 1275 to 1318 of SEQ ID NO: 1 (Table 8) (antisense GGTGCACAGTTTCTGGCAGG; MOE gapmer, wing and gap sizes not given here)",PT ratio (INR),blood coagulation; day 8,1.02
same,aPTT ratio (INR),blood coagulation; day 8,1.05
same,PT ratio (INR),blood coagulation; day 15,1.04
same,aPTT ratio (INR),blood coagulation; day 15,1.03
same,PT ratio (INR),blood coagulation; day 22,1.04
same,aPTT ratio (INR),blood coagulation; day 22,1.16
same,PT ratio (INR),blood coagulation; day 29,1.01
same,aPTT ratio (INR),blood coagulation; day 29,1.11
same,PT ratio (INR),blood coagulation; day 36,1.05
same,aPTT ratio (INR),blood coagulation; day 36,1.18
same,PT ratio (INR),blood coagulation; day 43,1.03
same,aPTT ratio (INR),blood coagulation; day 43,1.06
same,PT ratio (INR),blood coagulation; day 50,0.99
same,aPTT ratio (INR),blood coagulation; day 50,1.18
same,PT ratio (INR),blood coagulation; day 57,1.03
same,aPTT ratio (INR),blood coagulation; day 57,1.22
same,PT ratio (INR),blood coagulation; day 64,1.03
same,aPTT ratio (INR),blood coagulation; day 64,1.11
same,PT ratio (INR),blood coagulation; day 71,0.99
same,aPTT ratio (INR),blood coagulation; day 71,1.16
same,PT ratio (INR),blood coagulation; day 78,1.02
same,aPTT ratio (INR),blood coagulation; day 78,1.18
same,PT ratio (INR),blood coagulation; day 85,1.02
same,aPTT ratio (INR),blood coagulation; day 85,1.20
same,PT ratio (INR),blood coagulation; day −5,1.00
same,aPTT ratio (INR),blood coagulation; day −5,1.00
same,PT ratio (INR),blood coagulation; day −14,1.00
same,aPTT ratio (INR),blood coagulation; day −14,1.00
same,urine protein to creatinine ratio,[1]; Day 80,0.18
same,urine protein to creatinine ratio,[1]; Day 84,0.24
same,Platelets,[3],7 10^3/μL
same,RBC,[3],5
same,WBC,[3],23 nL⁻¹
same,lymphocytes,[3],4%
same,monocytes,[3],25%
same,neutrophils,[3],22%
same,HCT,[3],7%
same,MCH,[3],3
same,MCHC,[3],5%
same,MCV,[3],7
"ISIS 449707: 3-8-3, 4-8-4, 2-10-2, 3-10-3 or 4-10-4 MOE microwalk gapmer (Table 46) (antisense e[5mC]*eA*e[5mC]*eA*dG*dT*dT*dT*d[5mC]*dT*dG*dG*e[5mC]*eA*eG*eG)",Platelets,[4],722 nL⁻¹
same,RBC,[4],6.0 pL⁻¹
same,WBC,[4],20 nL⁻¹
same,hematocrit,[4],40%
same,hemoglobin,[4],12.0 g/dL
same,lymphocytes,[4],91%
same,monocytes,[4],2%
same,neutrophils,[4],6%
"ISIS 449708: 3-8-3, 4-8-4, 2-10-2, 3-10-3 or 4-10-4 MOE microwalk gapmer (Table 46) (antisense eA*e[5mC]*eA*dG*dT*dT*dT*d[5mC]*dT*dG*dG*e[5mC]*eA*eG)",Platelets,[4],925 nL⁻¹
same,RBC,[4],6.6 pL⁻¹
same,WBC,[4],22 nL⁻¹
same,hematocrit,[4],40%
same,hemoglobin,[4],12.2 g/dL
same,lymphocytes,[4],92%
same,monocytes,[4],2%
same,neutrophils,[4],6%
"ISIS 449709: 3-8-3, 4-8-4, 2-10-2, 3-10-3 or 4-10-4 MOE microwalk gapmer (Table 46) (antisense eG*e[5mC]*eA*e[5mC]*dA*dG*dT*dT*dT*d[5mC]*dT*dG*dG*d[5mC]*eA*eG*eG*e[5mC])",Platelets,[4],631 nL⁻¹
same,RBC,[4],6.9 pL⁻¹
same,WBC,[4],14 nL⁻¹
same,hematocrit,[4],41%
same,hemoglobin,[4],12.6 g/dL
same,lymphocytes,[4],91%
same,monocytes,[4],3%
same,neutrophils,[4],5%
"ISIS 449710: 3-8-3, 4-8-4, 2-10-2, 3-10-3 or 4-10-4 MOE microwalk gapmer (Table 46) (antisense e[5mC]*eA*e[5mC]*dA*dG*dT*dT*dT*d[5mC]*dT*dG*dG*d[5mC]*eA*eG*eG)",Platelets,[4],509 nL⁻¹
same,RBC,[4],6.3 pL⁻¹
same,WBC,[4],13 nL⁻¹
same,hematocrit,[4],41%
same,hemoglobin,[4],12.5 g/dL
same,lymphocytes,[4],91%
same,monocytes,[4],2%
same,neutrophils,[4],6%
"ISIS 449711: 3-8-3, 4-8-4, 2-10-2, 3-10-3 or 4-10-4 MOE microwalk gapmer (Table 46) (antisense eA*e[5mC]*dA*dG*dT*dT*dT*d[5mC]*dT*dG*dG*d[5mC]*eA*eG)",Platelets,[4],919 nL⁻¹
same,RBC,[4],6.4 pL⁻¹
same,WBC,[4],13 nL⁻¹
same,hematocrit,[4],43%
same,hemoglobin,[4],12.6 g/dL
same,lymphocytes,[4],90%
same,monocytes,[4],2%
same,neutrophils,[4],7%
